Key:
[1] = tested on: normal NK cells expanded with K562-aAPC; assay: percent inhibition of viability; higher = more inhibition; conditions: 72 h, IL-2 2.5 ng/mL
Procedure: (§1)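 Drug sensitivity and resistance testing on K562-aAPC-expanded normal NK cells: 5 concentrations (10-fold steps over a 10,000-fold range), 72 h at 37 °C, viability by CellTiter-Glo normalised to DMSO and benzethonium chloride controls; DSS from the fitted curve.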

[2] = tested on: DERL-7 (IL-2 2.5 ng/mL); assay: as above; conditions: 72 h
[3] = tested on: IMC-1 (IL-2 20 ng/mL); assay: as above; conditions: 72 h
[4] = tested on: KAI3 (IL-2 2.5 ng/mL); assay: as above; conditions: 72 h
[5] = tested on: KHYG-1 (IL-2 2.5 ng/mL); assay: as above; conditions: 72 h
[6] = tested on: NK-92 (IL-2 2.5 ng/mL); assay: as above; conditions: 72 h
[7] = tested on: NK-YS (IL-2 2.5 ng/mL); assay: as above; conditions: 72 h
[8] = tested on: NKL (IL-2 2.5 ng/mL); assay: as above; conditions: 72 h
[9] = tested on: SNK-6 (IL-2 2.5 ng/mL); assay: as above; conditions: 72 h
[10] = tested on: YT (IL-2 2.5 ng/mL); assay: as above; conditions: 72 h
[11] = tested on: normal primary NK cells, pool 1 (3 donors) (IL-2 2.5 ng/mL); assay: as above; conditions: 72 h
[12] = tested on: normal primary NK cells, pool 1 (3 donors), resting (IL-2 0 ng/mL); assay: as above; conditions: 72 h
[13] = tested on: normal primary NK cells, pool 2 (3 donors) (IL-2 2.5 ng/mL); assay: as above; conditions: 72 h
[14] = tested on: normal primary NK cells, pool 3 (3 donors) (IL-2 2.5 ng/mL); assay: as above; conditions: 72 h
[15] = tested on: normal NK cells expanded with K562-aAPC; assay: drug sensitivity score (DSS) (DSS units); higher = more sensitive; extreme values may be limits of the assay; conditions: 72 h; IL-2 2.5 ng/mL
Procedure: as §1

[16] = tested on: DERL-7 (IL-2 2.5 ng/mL); assay: as above; conditions: 72 h
[17] = tested on: IMC-1 (IL-2 20 ng/mL); assay: as above; conditions: 72 h
[18] = tested on: KAI3 (IL-2 2.5 ng/mL); assay: as above; conditions: 72 h
[19] = tested on: KHYG-1 (IL-2 2.5 ng/mL); assay: as above; conditions: 72 h
[20] = tested on: NK-92 (IL-2 2.5 ng/mL); assay: as above; conditions: 72 h
[21] = tested on: NK-YS (IL-2 2.5 ng/mL); assay: as above; conditions: 72 h
[22] = tested on: NKL (IL-2 2.5 ng/mL); assay: as above; conditions: 72 h
[23] = tested on: SNK-6 (IL-2 2.5 ng/mL); assay: as above; conditions: 72 h
[24] = tested on: YT (IL-2 2.5 ng/mL); assay: as above; conditions: 72 h
[25] = tested on: normal primary NK cells, pool 1 (3 donors) (IL-2 2.5 ng/mL); assay: as above; conditions: 72 h
[26] = tested on: normal primary NK cells, pool 1 (3 donors), resting (IL-2 0 ng/mL); assay: as above; conditions: 72 h
[27] = tested on: normal primary NK cells, pool 2 (3 donors) (IL-2 2.5 ng/mL); assay: as above; conditions: 72 h
[28] = tested on: normal primary NK cells, pool 3 (3 donors) (IL-2 2.5 ng/mL); assay: as above; conditions: 72 h

C[C@H](Nc1ncnc2nc[nH]c12)c1cc2cccc(Cl)c2c(=O)n1-c1ccccc1 [Duvelisib] (max concentration tested 500 nM)
percent inhibition of viability [%]
Conditions	0.05 nM	0.5 nM	5 nM	50 nM	500 nM
[1]	-2.59	4.75	5.15	19.8	45.7
[2]	-0.14	9.15	10.2	25.2	56.5
[3]	0.88	-0.84	-0.96	-0.33	6.98
[4]	-4.68	0.86	7.47	8.25	24.3
[5]	1.1	3.56	6.06	5.02	18.1
[6]	-9.06	-4.46	22.4	26.1	42.3
[7]	-2.69	-4.82	0.82	-1.23	13
[8]	-10.5	7.21	0.54	24.6	17.3
[9]	-0.58	4.35	2.29	9.46	32.8
[10]	0.13	2.78	3.52	2.82	12.4
[11]	-0.52	-4.76	3.49	6.72	18.7
[12]	0.72	-3.61	2.62	-2.38	3.26
[13]	-6.04	4.46	6.08	11.3	26.1
[14]	-13.6	-1.02	-2.45	-0.85	21.8

Conditions	drug sensitivity score
[15]	4.43
[16]	6.16
[17]	0
[18]	1.4
[19]	0.45
[20]	7.08
[21]	0.07
[22]	3.86
[23]	2.8
[24]	0.15
[25]	0.83
[26]	0
[27]	1.9
[28]	0.66

Cc1cccc(-c2nn3c(c2-c2ccnc4ccc(C(N)=O)cc24)CCC3)n1 [Galunisertib] (max concentration tested 1000 nM)
percent inhibition of viability [%]
Conditions	0.1 nM	1 nM	10 nM	100 nM	1000 nM
[1]	-0.13	-4.95	-1.88	-4.21	-16.8
[2]	5.62	1.68	4.85	-1.77	1.92
[3]	-7.13	-0.55	-5.27	-8.99	-4.14
[4]	-4.52	0.48	-2.74	-1.09	-2.65
[5]	-4.42	-0.98	-7.17	0.3	-1.95
[6]	6.42	-19.6	-7	-11.1	-5.09
[7]	-4.82	-4.05	-5.75	-3.29	-5.06
[8]	-14.8	-16.4	-19.5	-16.8	-23.6
[9]	4.83	20.7	0	-0.11	-19.9
[10]	-3.06	-2.63	-3.58	1.78	1.58
[11]	0.38	-7.01	-9.1	-2.92	-15.2
[12]	-3.02	-1.34	-8.83	11.9	15
[13]	-8.56	-7.94	-11.5	-15	-20.2
[14]	-11	-5.65	-10	-14.2	-19.7

Conditions	drug sensitivity score
[15]	0
[16]	0
[17]	0
[18]	0
[19]	0
[20]	0
[21]	0
[22]	0
[23]	0
[24]	0
[25]	0
[26]	1.02
[27]	0
[28]	0

Nc1nc(Nc2ccc3c(c2)CC[C@@H](N2CCCC2)CC3)nn1-c1cc2c(nn1)-c1ccccc1CCC2 [BGB324] (max concentration tested 10000 nM)
percent inhibition of viability [%]
Conditions	1 nM	10 nM	100 nM	1000 nM	10000 nM
[1]	-3.36	-11.5	-1.93	21.5	99.9
[2]	1.87	-0.37	13.9	68	101
[3]	-1.43	-0.15	0.68	-4.19	99.9
[4]	-3.31	-2.86	2.2	43.9	101
[5]	-2.69	-1.76	3.04	59	103
[6]	-4.37	-8.81	-0.92	49	102
[7]	-2.01	-2.03	0.13	14.3	101
[8]	6.99	-6.74	6.47	73.7	102
[9]	12.8	12.3	-18.1	34.5	99.7
[10]	-0.88	-5.6	-1.23	11	101
[11]	-3.33	-4.6	-5.97	66.2	99.8
[12]	7.14	3.63	5.02	83.6	99.8
[13]	-7.98	-0.57	-5.73	45.8	100
[14]	-9.08	-10.5	-10.5	23.1	99.8

Conditions	drug sensitivity score
[15]	8.94
[16]	14.7
[17]	5.23
[18]	11.2
[19]	12.5
[20]	11.6
[21]	7.94
[22]	14.8
[23]	10.3
[24]	7.38
[25]	13.2
[26]	16
[27]	11.3
[28]	9.12

O=C(Nc1cc(Cl)cc2c1[nH]c1cnccc12)c1cccnc1 [PS-1145] (max concentration tested 25000 nM)
percent inhibition of viability [%]
Conditions	2.5 nM	25 nM	250 nM	2500 nM	25000 nM
[1]	2.02	0.77	-1.48	-6.16	6.75
[2]	-3.2	-13	1.95	-4.1	-8.03
[3]	-6.22	-1.55	3.4	7.36	16
[4]	5.94	6.21	4.4	48.5	75
[5]	5.69	5.58	12.9	7.66	16.4
[6]	-0.17	-20.2	-5.95	4.6	23.6
[7]	0.26	0.9	2.11	7.41	11.3
[8]	12.7	11.1	10.4	9.5	20.8
[9]	-11.2	3.19	-6.13	14.1	16.6
[10]	3.94	1.19	1.07	4.91	13.9
[11]	5.83	-8.31	15.4	7.93	11.5
[12]	-26.1	-30.6	0.68	-5.12	-6.42
[13]	-19.7	-10.7	3.18	6.82	10.1
[14]	-2.28	-6.49	7.93	14.6	10.4

Conditions	drug sensitivity score
[15]	0
[16]	0
[17]	0.51
[18]	10.1
[19]	0.87
[20]	1.52
[21]	0.04
[22]	0
[23]	1.45
[24]	0.38
[25]	0.64
[26]	0
[27]	0
[28]	1.86

CC/C(=C(\c1ccc(O)cc1)c1ccc(OCCN(C)C)cc1)c1ccccc1 [4-hydroxytamoxifen] (max concentration tested 10000 nM)
percent inhibition of viability [%]
Conditions	1 nM	10 nM	100 nM	1000 nM	10000 nM
[1]	-7.32	-3.75	-0.57	7.65	64
[2]	7.02	-0.93	4.62	16.8	79.2
[3]	-4.59	-0.5	3.38	9.15	71.8
[4]	7.22	10.1	14.3	5.63	102
[5]	-2.07	1.6	5.77	21.8	55.9
[6]	3.77	-3.77	6.43	2.65	103
[7]	-2.09	3.5	7.72	7.44	66.8
[8]	8.86	-6.55	2.97	4.58	77.8
[9]	-1.81	-16.4	0.89	-17.1	93.9
[10]	3.34	-0.32	-0.38	9.38	93.1
[11]	-13	0.38	-1.85	-2.34	75.4
[12]	-6.81	0.21	-12.3	-11.9	88.8
[13]	-4	-6.91	4.61	4.67	80.2
[14]	-0.81	-2.52	-1.24	3.05	49.3

Conditions	drug sensitivity score
[15]	4.78
[16]	7.09
[17]	5.5
[18]	6.52
[19]	5.42
[20]	6.14
[21]	4.91
[22]	4.98
[23]	4.28
[24]	6.69
[25]	3.97
[26]	4.19
[27]	5.13
[28]	3.03

Reference: the supplement of paper PMC5908809
